Test: Inhibition of [3H]NMS binding to muscarinic receptor in mouse N4TG1 neuroblastoma cells

Question: For CN1CC2CC1C[C@H](OC(=O)C(C)(c1ccccc1)c1ccccc1)C2 (stereo partly drawn), which pKi is on record?
Answer: 8.3

Question: With CN1CCCC(COC(=O)C(C)(c2ccccc2)c2ccccc2)C1 (stereo not drawn) as the compound, how does the pKi read?
Answer: 7.8

Question: For CC[N+]1(CCOC(=O)C(CO)c2ccccc2)CCCCC1 (stereo not drawn), which pKi is on record?
Answer: 8.7

Question: With C[n+]1cscc1C(C)(C)OC(=O)c1ccccc1 as the compound, how does the pKi read?
Answer: 5.5

Question: Which pKi does the source give for CN1CCC(OC(=O)C(C)(c2ccccc2)c2ccccc2)CC1 here?
Answer: 8.8

Question: Which pKi does the source give for CN1CCC(OC(=O)C(CO)c2ccc(C(F)(F)F)cc2)CC1 (stereo not drawn) here?
Answer: 7.7

Question: With CC(C)N(COC(=O)c1ccc(N)cc1)C(C)C as the compound, how does the pKi read?
Answer: 5.3

Question: Which pKi does the source give for CN1CCCCC1COC(=O)C(C)(c1ccccc1)c1ccccc1 (stereo not drawn) here?
Answer: 6.8

Question: Which pKi does the source give for CC[N+](C)(CC)CC(=O)Nc1ccc(Cl)c(Cl)c1 here?
Answer: > 3.33

Question: With CN1CCC(COC(=O)C(C)(c2ccccc2)c2ccccc2)CC1 as the compound, how does the pKi read?
Answer: 7.7

Question: Which pKi does the source give for CN1CCC(OC(=O)C(C)(c2ccccc2)c2ccccc2)C1 (stereo not drawn) here?
Answer: 7.8

Question: With CC(C(=O)OCCN1CCCCC1)(c1ccccc1)c1ccccc1 as the compound, how does the pKi read?
Answer: 8.2

Question: Which pKi does the source give for CN1CCCC1CCOC(=O)C(C)(c1ccccc1)c1ccccc1 (stereo not drawn) here?
Answer: 8

Question: With C[N+](C)(C)CC#CC(O)(c1cccs1)C1CCCC1 (stereo not drawn) as the compound, how does the pKi read?
Answer: 7.1

Question: With C[N+](C)(C)CCOC(=O)C(c1ccccc1)c1ccccc1 as the compound, how does the pKi read?
Answer: 7.1

Question: For CCN1CCC(OC(=O)C(C)(c2ccccc2)c2ccccc2)CC1, which pKi is on record?
Answer: 9

Question: With CC(C(=O)OCCN1CCCC1)(c1ccccc1)c1ccccc1 as the compound, how does the pKi read?
Answer: 8.2

Question: With CCN1CCCC(OC(=O)C(C)(c2ccccc2)c2ccccc2)C1 (stereo not drawn) as the compound, how does the pKi read?
Answer: 6.3

Question: Which pKi does the source give for CN1CCC2CC1C[C@@H](OC(=O)C(C)(c1ccccc1)c1ccccc1)C2 (stereo partly drawn) here?
Answer: 8.3

Question: With CCN1CCC(COC(=O)C(C)(c2ccccc2)c2ccccc2)CC1 as the compound, how does the pKi read?
Answer: 6.9

Question: With CN1C2CC[C@H]1C[C@@H](OC(=O)C(C)(c1ccccc1)c1ccccc1)C2 as the compound, how does the pKi read?
Answer: 8.4

Question: Which pKi does the source give for CCN(CC)CCOC(=O)C(C)(c1ccccc1)c1ccccc1 [APROFENE] here?
Answer: 8.2

Question: With CN1[C@@H]2CC[C@H]1C[C@@H](OC(=O)C(CO)c1ccccc1)C2 (stereo partly drawn) [ATROPINE] as the compound, how does the pKi read?
Answer: 8.4

Reference: ChEMBL document CHEMBL1151914, “3D-QSAR studies of 2,2-diphenylpropionates to aid discovery of novel potent muscarinic antagonists” (Bioorg Med Chem, 2009)
